Assay results from patent US11767322B2 (BRISTOL-MYERS SQUIBB COMPANY, priority 2020, dated 2023).
Read-outs that look alike come from different tables or passages of the source.

What was measured:
[1] = biological target: T1, His-GST-TVMV-hRIPK1(1-324) (Homo sapiens, UniProt Q13546); experiment: biochemical; type: binding; conditions: HTRF probe displacement, 1 h at rt; read-out: RIPK1 IC50
T1 construct: The coding region of human RIPK1(1-324) flanked by NdeI site at 5′ end; made in house; host or cells: Spodoptera frugiperda Sf9 insect cells (baculovirus, Bac-to-Bac)
T1 sequence (Q13546 1-324): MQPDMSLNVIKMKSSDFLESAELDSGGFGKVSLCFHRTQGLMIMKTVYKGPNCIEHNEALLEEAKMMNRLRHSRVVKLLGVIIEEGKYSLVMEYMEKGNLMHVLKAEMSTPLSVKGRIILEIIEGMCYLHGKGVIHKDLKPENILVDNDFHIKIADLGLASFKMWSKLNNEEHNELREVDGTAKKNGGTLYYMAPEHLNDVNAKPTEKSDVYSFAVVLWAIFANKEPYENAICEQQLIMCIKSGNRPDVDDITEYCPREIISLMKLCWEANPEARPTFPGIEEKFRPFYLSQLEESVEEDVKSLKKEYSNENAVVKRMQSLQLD

[2] = system: MLKL phosphorylation in HT29-L23 human colorectal adenocarcinoma cells; experiment: MLKL phosphorylation high-content assay; type: cell-based; conditions: 6 h, necroptosis induced with TNFα, SMAC mimetic and Z-VAD, 6 h, maximal inhibition defined by Nec1s
[3] = Homo sapiens, read-out: pMLKL IC50, HT29-L23 cells
[4] = read-out: pMLKL IC50, HT29-L23 cells
[5] = HT29-L23 cells, read-out: pMLKL IC50

| Compound | IC50 [1] | IC50 [2, 3] | IC50 [2, 4] | IC50 [2, 5] |
| --- | --- | --- | --- | --- |
| Cc1cc(F)c(-c2ccn3nc(N)nc3c2)cc1C(=O)NCCC(O)c1ccc(Cl)cn1 (stereo not shown) [Example 5, 5-(2-amino-[1,2,4]triazolo[1,5-a]pyridin-7-yl)-N-(3-(5-chloropyridin-2-yl)-3-hydroxypropyl)-4-fluoro-2-methylbenzamide] | 6.4 nM | 2.6 nM | – | – |
| Nc1nc2cc(-c3ccc(Cl)c(C(=O)NCC(F)(F)C(O)c4ccc(F)cc4F)c3F)ccn2n1 (single isomer, unassigned) [Example 179, 3-(2-amino-[1,2,4]triazolo[1,5-a]pyridin-7-yl)-6-chloro-N-(3-(2,4-difluorophenyl)-2,2-difluoro-3-hydroxypropyl)-2-fluorobenzamide] | 0.3 nM | – | 3.7 nM | – |
| Nc1nc2cc(-c3ccc(Cl)c(C(=O)NCC(O)C(F)(F)c4ccc(F)cc4)c3F)ccn2n1 (single isomer, unassigned) [Example 292, 3-(2-amino-[1,2,4]triazolo[1,5-a]pyridin-7-yl)-6-chloro-N-(3,3-difluoro-3-(4-fluorophenyl)-2-hydroxypropyl)-2-fluorobenzamide] | 2.4 nM | 1 nM | – | – |
| Nc1nc2cc(-c3ccc(Cl)c(C(=O)NCC(F)C(O)c4ccc(Cl)cc4)c3F)ccn2n1 (stereo not shown) [Example 129, 3-(2-amino-[1,2,4]triazolo[1,5-a]pyridin-7-yl)-6-chloro-N-(3-(4-chlorophenyl)-2-fluoro-3-hydroxypropyl)-2-fluorobenzamide] | 3.5 nM | – | 1.7 nM | – |
| Nc1nc2cc(-c3ccc(Cl)c(C(=O)NCC(F)(F)C(O)c4ccc(Cl)cc4F)c3F)ccn2n1 (single isomer, unassigned) [Example 162, 3-(2-amino-[1,2,4]triazolo[1,5-a]pyridin-7-yl)-6-chloro-N-(3-(4-chloro-2-fluorophenyl)-2,2-difluoro-3-hydroxypropyl)-2-fluorobenzamide] | 1.6 nM | – | 3.1 nM | – |
| Nc1nc2cc(-c3ccc(Cl)c(C(=O)NCC(F)(F)C4(c5ccc(F)cc5)COC4)c3F)ccn2n1 [Example 245, 3-(2-amino-[1,2,4]triazolo[1,5-a]pyridin-7-yl)-6-chloro-N-(2,2-difluoro-2-(3-(4-fluorophenyl)oxetan-3-yl)ethyl)-2-fluorobenzamide] | 19 nM | 3.7 nM | – | – |
| Nc1nc2cc(-c3ccc(Cl)c(C(=O)NCCC(O)c4ccc(C(F)(F)F)cc4)c3F)ccn2n1 (single isomer, unassigned) [Example 86, 3-(2-amino-[1,2,4]triazolo[1,5-a]pyridin-7-yl)-6-chloro-2-fluoro-N-(3-hydroxy-3-(4-(trifluoromethyl)phenyl)propyl)benzamide] | 2.2 nM | – | 7.5 nM | – |
| Nc1nc2cc(-c3ccc(Cl)c(C(=O)NCC(F)(F)C(O)c4cc(F)ccc4F)c3F)ccn2n1 (single isomer, unassigned) [Example 176, 3-(2-amino-[1,2,4]triazolo[1,5-a]pyridin-7-yl)-6-chloro-N-(3-(2,5-difluorophenyl)-2,2-difluoro-3-hydroxypropyl)-2-fluorobenzamide] | 0.3 nM | – | 1.9 nM | – |
| Nc1nc2cc(-c3ccc(Cl)c(C(=O)NCC(F)(F)C(O)c4cc(Cl)ccc4F)c3F)ccn2n1 (stereo not shown) [Example 180, 3-(2-amino-[1,2,4]triazolo[1,5-a]pyridin-7-yl)-6-chloro-N-(3-(5-chloro-2-fluorophenyl)-2,2-difluoro-3-hydroxypropyl)-2-fluorobenzamide] | 2 nM | – | 10 nM | – |
| Cc1ccc(-c2ccn3nc(N)nc3c2)c(F)c1C(=O)NCCC(C)(O)c1ccc(C#N)cc1 (stereo not shown) [Example 141, 3-{2-amino-[1,2,4]triazolo[1,5-a]pyridin-7-yl}-N-[3-(4-cyanophenyl)-3-hydroxybutyl]-2-fluoro-6-methylbenzamide] | 22 nM | 38 nM | – | – |
| Nc1nc2cc(-c3ccc(Cl)c(C(=O)NCC(F)(F)C(O)C4CCC(F)(F)CC4)c3F)ccn2n1 (stereo not shown) [Example 257, 3-(2-amino-[1,2,4]triazolo[1,5-a]pyridin-7-yl)-6-chloro-N-(3-(4,4-difluorocyclohexyl)-2,2-difluoro-3-hydroxypropyl)-2-fluorobenzamide] | 8.9 nM | 5.9 nM | – | – |
| (R)-3-(2-amino-[1,2,4]triazolo[1,5-a]pyridin-7-yl)-6-cyclopropyl-N-(2,2-difluoro-3-(4-fluorophenyl)-3-hydroxypropyl)-2-fluorobenzamide [Example 305] | 1.6 nM | – | – | 0.6 nM |
| Cc1cccc(C(O)C(F)(F)CNC(=O)c2c(Cl)ccc(-c3ccn4nc(N)nc4c3)c2F)c1 (stereo not shown) [Example 175, 3-(2-amino-[1,2,4]triazolo[1,5-a]pyridin-7-yl)-6-chloro-N-(2,2-difluoro-3-hydroxy-3-(m-tolyl)propyl)-2-fluorobenzamide] | 2.7 nM | – | 7.8 nM | – |
| Cc1ccc(-c2ccn3nc(N)nc3c2C)c(F)c1C(=O)NCC[C@H](O)c1ccc(Cl)cc1 (single isomer, unassigned; enantiomer 2) [Example 138] | 11 nM | – | – | 0.2 nM |
| Nc1nc2cc(-c3ccc(OC(F)F)c(C(=O)NCC(F)(F)[C@@H](O)c4ccc(F)cc4)c3F)ccn2n1 [Example 306, (S)-3-(2-amino-[1,2,4]triazolo[1,5-a]pyridin-7-yl)-N-(2,2-difluoro-3-(4-fluorophenyl)-3-hydroxypropyl)-6-(difluoromethoxy)-2-fluorobenzamide] | 11 nM | 4.2 nM | – | – |
| Nc1nc2cc(-c3ccc(Cl)c(C(=O)NCC(F)(F)C(O)c4cc(F)ccc4F)c3F)ccn2n1 (single isomer, unassigned) [Example 177, 3-(2-amino-[1,2,4]triazolo[1,5-a]pyridin-7-yl)-6-chloro-N-(3-(2,5-difluorophenyl)-2,2-difluoro-3-hydroxypropyl)-2-fluorobenzamide] | 1.8 nM | – | 23 nM | – |
| Cc1ccc(-c2ccn3nc(N)nc3c2)c(F)c1C(=O)NCC(F)(F)[C@@H](O)c1ccc(F)cc1 (single isomer, unassigned) [Example 30] | 4.5 nM | 0.5 nM | – | – |
| Cc1cccc(C(O)C(F)(F)CNC(=O)c2c(Cl)ccc(-c3ccn4nc(N)nc4c3)c2F)c1 (stereo not shown) [Example 174, 3-(2-amino-[1,2,4]triazolo[1,5-a]pyridin-7-yl)-6-chloro-N-(2,2-difluoro-3-hydroxy-3-(m-tolyl)propyl)-2-fluorobenzamide] | 2.8 nM | – | 1.4 nM | – |
| Nc1nc2cc(-c3ccc(Cl)c(C(=O)NCC(F)(F)C(O)c4cccc(C(F)(F)F)n4)c3F)ccn2n1 (single isomer, unassigned) [Example 254, 3-(2-amino-[1,2,4]triazolo[1,5-a]pyridin-7-yl)-6-chloro-N-(2,2-difluoro-3-hydroxy-3-(6-(trifluoromethyl)pyridin-2-yl)propyl)-2-fluorobenzamide] | 3.5 nM | – | 4.1 nM | – |
| [2H]C([2H])(CC([2H])(O)c1ccc(Cl)cc1)NC(=O)c1c(Cl)ccc(-c2ccn3nc(N)nc3c2)c1F (single isomer, unassigned) [Example 76, 3-(2-amino-[1,2,4]triazolo[1,5-a]pyridin-7-yl)-6-chloro-N-(3-(4-chlorophenyl)-3-hydroxypropyl-1,1,3-d3)-2-fluorobenzamide] | 1.5 nM | – | 3.3 nM | – |
